Patent US10815444B2, “Use of specific derivatives of quaternized nitrogen compounds as additives in fuels and lubricants” (BASF SE, priority 2013, dated 2020)
One block for each compound: values may come before it.

Experiments:
[1] = Procedure: The partition coefficient is determined by means of various methods according to the value.
[2] = Motor oil compatibility to standard DGMK 531 1-A (filtration time); conditions: for filtration time: 10 g additive + 10 g motor oil, 90° C. three days, 500 ml EN590 B7 diesel, 0.8 μm membrane filter, 200 mbar; for filterability / motor oil compatibility pass/fail: DGMK 531 1-A
Procedure: Determination to standard DGMK 531 1-A with EN590 B7 fuel from Aral, unadditized, and Wintershall Multi-Rekord Top 15W-40 motor oil.
10 g in each case of motor oil and 10 g of the additive to be tested are weighed into a 500 ml Erlenmeyer flask and homogenized. The flask containing the mixture is loosely sealed with a glass stopper and conditioned in a drying cabinet at a temperature of 90±3° C. for three days. After the conditioning, the sample is cooled in a fume hood at room temperature for one hour. The mixture is then made up with 500 ml of diesel fuel and mixed thoroughly. A membrane filter of diameter 50 mm and pore size 0.8 μm is inserted into the filtration apparatus. Mixture is filtered through the membrane filter with the aid of a reduced pressure of 200 mbar. The filtration time is measured.

[3] = Storage stability of formulations at −20° C.; type: physicochemical
Procedure: The following formulations were tested for storage stability at −20° C.: […]
a) 1:5 Dilution in Solvent Naphtha (5 Parts):
b) 1:5:1 Dilution in 2-Ethylhexyl Nitrate (5 Parts) and Solvent Naphtha (1 Part)

[4] = DW10 Na soap IDID test (clean-up), exhaust gas temperatures on cold start; conditions: CU, 70 mg/kg active compound
Procedure: 3. IDID Test—Determination of Additive Effect on Internal Injector Deposits
The formation of deposits within the injector was characterized by the deviations in the exhaust gas temperatures of the cylinders at the cylinder outlet on cold starting of the DW10 engine.
To promote the formation of deposits, 1 mg/l of sodium salt of an organic acid, 20 mg/l of dodecenylsuccinic acid and 10 mg/l of water were added to the fuel.
The test is conducted as a dirty-up clean-up test (DU-CU).
Thereafter, the CU fuel is used to start the CU without deinstalling and cleaning the injectors. After the CU run over 8 h, after a rest phase of at least eight hours, a cold start of the engine is conducted, followed by idling for 10 minutes. The evaluation is effected by the comparison of the temperature profiles for the individual cylinders after the cold start in the DU and CU runs.
The IDID test indicates the formation of internal deposits in the injector. The characteristic used in this test is the exhaust gas temperature of the individual cylinders. In an injector system without IDIDs, the exhaust gas temperatures of the cylinders increase homogeneously.
The temperature sensors are beyond the cylinder head outlet in the exhaust gas manifold. Significant deviation of the individual cylinder temperatures (e.g. >20° C.) indicates the presence of internal injector deposits (IDIDs).
The tests (DU and CU) are each conducted with run time 8 h. The one-hour test cycle from CEC F-098-08 (see FIG. 1) is run through 8 times in each case. In the event of deviations of the individual cylinder temperatures of greater than 45° C. from the mean for all 4 cylinders, the test is stopped early.
To examine the influence of the additives on the performance of direct injection diesel engines, as a further test method, the IDID engine test was conducted, in which the exhaust gas temperatures in the cylinders at the cylinder outlet were determined on cold starting of the DW10 engine. (cf. method description above)
A DW10 direct injection diesel engine with common rail system from the manufacturer Peugeot was used, which was employed in the CEC F-098-08 test method. The method that was used derived from CEC F-098-08, with the difference that, rather than 1 ppm of Zn for artificial inducement of formation of deposits, 1 ppm by weight of sodium naphthenate and 20 ppm by weight of dodecenylsuccinic acid were used in each case. The fuel used was a commercial B7 diesel fuel according to EN 590 from Aral. The test duration is shortened to 8 hours compared to method CEC F-098-08. After respective DU and CU phases, the engine is cooled and then started at idling speed.
II. CU (clean-up) After the DU phase, the engine is operated with additized fuel without cleaning the injectors beforehand.
Again, the exhaust gas temperatures of the 4 cylinders (“C1” to “C4”) were measured at each of the cylinder outlets after 0 minutes (“ϑ0”) and after 5 minutes (“ϑ5”). The results of the exhaust gas temperature measurements with average values (“Δ”) and the greatest differences from Δ in the downward (“−”) and upward (“+”) directions for the two test runs are summarized in the following overview: […]

[5] = XUD9 engine test (keep clean), flow restriction, CEC F-23-01; conditions: 0.1 mm needle stroke, Aral EN590 B7 fuel
Source text: 1. XUD9 Test—Determination of Flow Restriction
The procedure was according to the standard provisions of CEC F-23-01.
Test according to above procedure CEC F-23-01 in Peugeot XUD9 engine.

[6] = DW10 Na power-loss test (keep-clean); conditions: 8 h, 1 ppm Na + 20 ppm dodecenylsuccinic acid and 150 ppm additive
Procedure: To examine the efficacy of the inventive compounds against power loss caused by metals such as Na, K and others (and not by Zn as described above), an IDID engine test was used. During the run, the power is measured to CEC F-098-08.

[7] = DW10 Zn engine test (clean-up), engine power; conditions: 25 mg/kg active compound
Procedure: 2.2. DW10 Dirty-Up Clean-Up (DU-CU)
The DU-CU test is based on CEC test procedure F-098-08 Issue 5. The procedure is described in Issue 5 of the test procedure (CEC F-98-08). This is done using the same test setup and the PEUGEOT DW10 engine type.
The DU-CU test consists of two individual tests which are run in succession. The first test serves to form deposits (DU), the second to remove the deposits (CU). After the DU, the power loss is determined. After the end of the DU run, the engine is not operated for at least 8 hours and is cooled to ambient temperature. Thereafter, the CU fuel is used to start the CU without deinstalling and cleaning the injectors. The deposits and power loss ideally decline over the course of the CU test.
The initial power P0,cu [kW] is calculated from the measured torque at full load 4000/min directly after the test has started and the engine has run hot in the CU. The procedure is likewise described in Issue 5 of the test procedure.
The final power (Pend,cu) is determined in the 12th cycle in stage 12 (see table, FIG. 2). Here too, the operation point is full load 4000/min. Pend,cu [kW] is calculated from the torque measured.
The test was conducted with a Peugeot DW10 engine, which is used in CEC F-98-08 procedure, except that more severe conditions were used in the dirty-up part:
I. Dirty-up: the more severe conditions allow distinctly faster formation of injector deposits than under standard CEC F-98-08 conditions: The engine was operated at full load (4000 rpm) with EN590 B7 Aral, unadditized, containing 3 mg/kg Zn, for 4 h.

[8] = 1:5:1 dilution in 2-ethylhexyl nitrate (5 parts) and Solvent Naphtha (1 part)
[9] = 1:5 dilution in Solvent Naphtha (5 parts)

- partition coefficient log Pow [1]: 1.3
Compound: CCCCCO [pentanol]

Compound: C12/14-NMe3-Methyl Oxalate [Comparative example 1, reference compound]
- filtration time [2]: > 300 s
- filterability [2]: very poor filterability
- motor oil compatibility pass/fail [2]: fail
- storage stability observation [3, 8]: solidification after 1 day
- storage stability observation [3, 9]: solidification after 44 days

- filtration time [2]: 114 s
- filterability [2]: good filterability
- motor oil compatibility pass/fail [2]: pass
- storage stability observation [3, 8]: clear liquid after 14 days
- storage stability observation [3, 9]: clear liquid after 60 days
Compound: C12/14-NMe3-2-Propylheptyl Oxalate [Inventive example 1]
- average exhaust gas temperature (Δ) [4]: 77 °C
- evaluation of IDID clean-up [4]: the IDIDs formed were removed
- greatest difference from Δ in the downward direction [4]: −8 °C
- greatest difference from Δ in the upward direction [4]: +5 °C
- exhaust gas temperature cylinder C1 ([4]; after 0 minutes (ϑ0)): C1: 28 °C
- exhaust gas temperature cylinder C2 ([4]; after 0 minutes (ϑ0)): C2: 27 °C
- exhaust gas temperature cylinder C3 ([4]; after 0 minutes (ϑ0)): C3: 27 °C
- exhaust gas temperature cylinder C4 ([4]; after 0 minutes (ϑ0)): C4: 26 °C
- exhaust gas temperature cylinder C1 ([4]; after 5 minutes (ϑ5)): C1: 78 °C
- exhaust gas temperature cylinder C2 ([4]; after 5 minutes (ϑ5)): C2: 82 °C
- exhaust gas temperature cylinder C3 ([4]; after 5 minutes (ϑ5)): C3: 77 °C
- exhaust gas temperature cylinder C4 ([4]; after 5 minutes (ϑ5)): C4: 69 °C
- Flow restriction ([5]; dosage 24 mg/kg): 46.6%
- Flow restriction ([5]; dosage 36 mg/kg): 14.5%
- Flow restriction ([5]; dosage 48 mg/kg): 4.5%
- Change in power in the test [6]: +0.2%
- Engine power after the test [6]: 96.6 kW
- Engine power before the test [6]: 96.4 kW
- Engine power on commencement of clean-up test ([7]; 1 ppm Zn in EN590 B7, after dirty-up): 90.2 kW
- Engine power after engine running for 3 h ([7]; 1 ppm Zn in EN590 B7, clean-up): 97.7 kW
- Engine power until the end of the clean-up test ([7]; 1 ppm Zn in EN590 B7, clean-up lasting 8 h): 97.7 kW

- partition coefficient log Pow [1]: 2.9
Compound: CCCCC(CC)CO (stereo not drawn) [2-ethylhexanol]
